Experimental data: patent US12545674B2, “Crystal of trifluoromethyl/chloro disubstituted sulfonamide selective BCL-2 inhibitor” (priority 2020, dated 2026)

Assays:
[1] = tested on: human platelet caspase-3 activity; experiment: Human platelet toxicity study (caspase-3 activity assay); assay type: cell-based; conditions: human platelets, compound concentration 1 μM, 90 min; normalized, reference ABT-199
Experimental: 10 mL of human whole blood was collected using a heparin sodium anticoagulation tube, mixed well by turning upside down, and centrifuged at 90 g for 10 min. The supernatant was collected and centrifuged at 1950 g for 10 min. The supernatant was discarded, and the residue was resuspended in 4 mL of PBS, and centrifuged at 1190 g for 5 min. The procedure was repeated once. The supernatant was discarded, and the platelets were resuspended in PBS and adjusted to a density of 2-3×10^8 cells/mL. Cells were seeded into a 96-well plate at a density of […] and at 100 μL/well. 50 μL of control buffer was added to each negative control well, and 50 μL of compound at a corresponding concentration was added to each compound well to adjust the final concentration of the compound to 2.5 μM or 1 μM, followed by incubation in an incubator at 37° C. for 90 min. The liquids in the 96-well plate were transferred to 1.5 mL centrifuge tubes. […] The resulting mixture was mixed gently, and the plate was read by a PE Envision multi-functional microplate reader (excitation: 360 nm, emission: 460 nm) once every 10 min for 6 times. Caspase-3 activity was determined based on the intensity of the released AMC fluorescence, that is the slope of the fitted line to which each well corresponds represents Caspase activity (all data were normalized and the reference was ABT-199).

[2] = In vitro stability in liver microsomes, rat; assay type: in vitro ADME; conditions: 1 μM
Experimental: (§1) 300 μL of the final incubation system contains 30 μL of liver microsomes (protein concentration: 5 mg/mL), 30 μL of NADPH+MgCl2, 3 μL of the test compound (in acetonitrile), and 237 μL of PBS buffer (pH 7.4). Among them, the proportion of the organic solvent (acetonitrile) was 1% (volume ratio). Samples were prepared in duplicate for each species (mouse, rat and human), with 0.3 mL each. […] 50 μL of the mixture was taken at 0 min, 15 min, 30 min and 60 min, and 300 μL of glacial acetonitrile containing an internal standard was added to terminate the reaction. 50 μL of the incubated sample was added with 300 μL of glacial acetonitrile containing an internal standard (20 ng/mL diazepam) for precipitation. The mixture was vortexed for 5 min, and centrifuged (13,000 rpm, 20° C.) for 10 min 70 μL of supernatant was taken and 70 μL of ultrapure water was added for dilution and homogeneous mixing. 1 μL of sample was injected for analysis.

[3] = In vitro stability in liver microsomes, mouse; assay type: in vitro ADME; conditions: 1 μM
Experimental: as §1

[4] = tested on: human B-cell leukemia RS4;11 subcutaneous xenograft; experiment: Pharmacodynamics in human B-cell leukemia RS4;11 subcutaneous xenograft model; assay type: in vivo, NOD/SCID mice; conditions: 25 mg/kg p.o. single dose, Day 17 after end of treatment
From the text: NOD/SCID mice, female, aged 9-10 weeks (ages upon tumor cell grafting), body weight of 16.3-22.0 g. The mice were purchased from Beijing AniKeeper Biotech Co., Ltd. (production license number: SCXK (Jing) 2017-0006; animal certification number: 11402400013155). Breeding environment: SPF grade. Mice were grafted subcutaneously on the right anterior dorsal side with 1×10^7 RS4;11 cells. The day of grafting was defined as day 0. When the mean tumor volume was 240 mm^3, the mice were randomized by the tumor size. The administration was performed as per Table 16 below.
Clinical symptoms observed during the study were recorded in the raw data. Calculation formula for tumor volume: Tumor volume (mm^3)=½×(a×b^2) (where a represents long diameter and b represents short diameter). The data were collected using StudyDirector™ software (version No. 3.1.399.19, supplier: Studylog System, Inc., S.San Francisco, CA, USA) in the study, including measurements of the long and short diameters of the tumor and body weights of the animals. The raw data obtained from a balance and a vernier caliper were directly input into the software, and any change in the data was recorded. Relative tumor proliferation rate (T/C %) refers to the percentage of the relative tumor volume or tumor weight of the treatment and control groups at a certain time point. The calculation formula is as follows: T/C %=TRTV/CRTV×100%(TRTV:mean RTV for treatment group;CRTV:mean RTV for vehicle control group;RTV=Vt/V0, where V0 denotes the tumor volume of the animal upon grouping, and Vt denotes the tumor volume of the animal after treatment).
(T and C are the relative tumor volume (RTV) or tumor weight (TW) at a particular time point for the treatment and control groups, respectively).
All experimental results were expressed as mean tumor volume±SEM (standard error of mean). The relative tumor volume of the treatment group was compared with that of the control group for any significant difference by the independent sample T test. All the data were analyzed using SPSS 18.0. p<0.05 was defined as a significant difference.

[5] = In vitro stability in liver microsomes, human; assay type: in vitro ADME; conditions: 1 μM
Experimental: as §1

Rat Residuals at 60 min [2]: 90.9% | Mouse Residuals at 60 min [3]: 73.9% | Human Residuals at 60 min [5]: 86.3%
Compound: CC1(C)CCC(CN2CCN(c3ccc(C(=O)NS(=O)(=O)c4ccc(NC[C@H]5COCCO5)c([N+](=O)[O-])c4)c(Oc4cnc5[nH]ccc5c4)c3)CC2)=C(c2ccc(C(F)(F)F)cc2Cl)C1 [Compound of formula I]
Slope (caspase-3 activity) [1]: 0.59 | T/C [4]: 29.8% | TGI [4]: 70.2% | Tumor volume (x ± S) [4]: 600.39 ± 32.88 mm^3
